Reference: PubChem BioAssay AID365 (MTDP, 2006)
pIC50: −log10 of the molar value. Activity calls are given as the source filed them. How the calls were made is not given here.

molecular target: Ribonuclease HI (Escherichia coli (strain K12)) (UniProt P0A7Y4); test: inhibition of bacterial ribonuclease H activity – biochemical, FRET RNA/DNA duplex cleavage, dose response (AID 365); settings: E. coli RNase H, FRET RNA/DNA cleavage fluorescence
Sequence (P0A7Y4 whole entry, looked up): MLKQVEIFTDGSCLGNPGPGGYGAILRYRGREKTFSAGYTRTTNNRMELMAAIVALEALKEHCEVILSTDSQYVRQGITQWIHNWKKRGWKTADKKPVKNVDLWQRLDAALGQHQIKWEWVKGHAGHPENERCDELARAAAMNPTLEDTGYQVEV

Row | Compound | IC50 | pIC50
1 | C=C(C)[C@@H]1CCc2c(O)c(O)c(=O)cc(C)c2C1 | inactive | 
2 | Cc1ccc(N2C(=O)/C(=C/c3ccc(O)c(O)c3)SC2=S)cc1C |  | 5.70
3 | CCCCCCCCCCCCCCCC(=O)OCC1OC(n2ccc(N)nc2=O)C(O)C1O (configuration not stated) |  | 6.19
4 | Ic1ccc2c(c1)N(c1ccccc1)c1cc(N=c3ccc4nc5ccc(I)cc5n(-c5ccccc5)c-4c3)ccc1N2 |  | 5.39
5 | Cc1ccc(C)n1-c1ccc(O)c(C(=O)O)c1 | > 100 µM (inactive) | 
6 | CC(C)=CCC/C(C)=C/Cc1cc(/C=C/c2cc(O)c(C/C=C(\C)CCC=C(C)C)c(O)c2)cc(O)c1O |  | 5.77
7 | CCCCCCCCCCCCCCCCCCOCC(O)CO (configuration not stated) | > 100 µM (inactive) | 
8 | COc1ccc(C(=O)NC(=S)Nc2ccc3nn(-c4ccc(C)c(Cl)c4)nc3c2)cc1[N+](=O)[O-] | inactive | 
9 | O=C1/C(=C/c2ccc(O)c(O)c2)SC(=S)N1c1ccc(O)cc1 |  | 5.10
10 | COc1cccc2cc(C(N)=O)c(=O)oc12 | > 100 µM (inactive) | 
11 | O=C1NC(=S)S/C1=C/c1cccc(OCc2ccc(Cl)c(Cl)c2)c1 |  | 5.36
12 | C[C@H]1[C@H](O)c2c(c3c(c4c(-c5ccccc5)cc(=O)oc24)OC(C)(C)C=C3)O[C@@H]1C | > 100 µM (inactive) | 
13 | Cc1ccc(C=C2C(=O)NC(=S)N(c3ccccc3Cl)C2=O)o1 | inactive | 
14 | Cc1cc(-c2ccc(C=C3C(=O)NC(=S)NC3=O)o2)c([N+](=O)[O-])cc1C |  | 5.06
15 | O=C1/C(=C/c2ccco2)C(=O)N(c2ccc(Br)cc2)C(=S)N1c1ccccc1 | inactive | 
16 | C=C1C(=O)O[C@@H]2/C=C(\C)CC/C=C(\C(=O)O)CC/C=C(\C)CC[C@H]12 | > 100 µM (inactive) | 
17 | COc1cc(C=O)ccc1OCCCOc1cccc(Oc2ccccc2)c1 |  | 5.39
18 | O=C1O/C(=C(/C(=O)O)c2ccc(O)cc2)C(O)=C1c1cc2c3c(c(O)cc(C4=C(O)/C(=C(\C(=O)O)c5ccc(O)cc5)OC4=O)c3c1)OC2=O | inactive | 
19 | CC1Oc2cc3c(-c4c(O)cc(O)c5c(O)c6c(cc45)OC(C)C(C)C6=O)c(O)cc(O)c3c(O)c2C(=O)C1C (configuration not stated) | inactive | 
20 | C[C@]12Cc3cnc(-c4ccccc4)nc3C[C@@H]1CC[C@@H]1[C@@H]2CC[C@@]2(C)[C@H]1CC[C@]2(C)O | inactive | 
21 | c1ccc(C(c2cccc3c2ccc2ccccc23)C(c2ccccc2)c2cccc3c2ccc2ccccc23)cc1 (configuration not stated) |  | 5.12
22 | O=C(N/N=C/c1ccccc1Cl)c1cc(O)c(O)c(O)c1 | inactive | 
23 | Nc1nc(Sc2ccc([N+](=O)[O-])c3nonc23)c2[nH]cnc2n1 | > 100 µM (inactive) | 
24 | CC1=C(C)CC(C(=O)Nc2ccc(N3C(=O)c4ccccc4C3=O)cc2)C(C(=O)O)C1 (configuration not stated) | > 100 µM (inactive) | 
25 | Cc1ccc(S(=O)(=O)/N=C2\C=CC(=O)C=C2Cl)cc1 | inactive | 

Row | Compound | IC50 | pIC50
26 | COc1ccc(/C=C\C(=O)c2c(-c3ccccc3)c3cc(C)ccc3[nH]c2=O)c(OC)c1 |  | 5.05
27 | NC(=O)c1c(NC(=O)CCc2ccccc2)sc2c1CCCCCC2 |  | 5.70
28 | Oc1ccc2ccccc2c1C=NCc1c(O)ccc2ccccc12 | inactive | 
29 | O=C1C=C/C(=N\S(=O)(=O)c2cc(Cl)ccc2Cl)C=C1Cl |  | 5.15
30 | O=C1C(Cl)=C/C(=N\S(=O)(=O)c2ccccc2)C(Cl)=C1Cl | inactive | 
31 | CN(C)S(=O)(=O)c1ccc(Nc2ccc(O)c3c2C(=O)c2c([N+](=O)[O-])ccc(O)c2C3=O)cc1 |  | 5.10
32 | O=S(=O)(Nc1cccc(C(F)(F)F)c1)c1ccc2ccccc2c1 | inactive | 
33 | COC(=O)c1cc2c3c(ccc2[nH]1)N(C(=O)c1cc2c4c(ccc2[nH]1)N(C(=O)c1cc2c5c(ccc2[nH]1)N(C(N)=O)CC5)CC4)CC3 | inactive | 
34 | COC(=O)c1cc2cc3cc4cc(CC(=O)O)c(C(=O)/C=C(\O)c5ccccc5O)c(OC)c4c(OC)c3c(O)c2c(=O)o1 | inactive | 
35 | Nc1ccc(S(=O)(=O)O)c2cccc(O)c12 | inactive | 
36 | O=C1C=C(NCCc2cc(Br)c(O)c(Br)c2)C(=O)c2ncccc21 | inactive | 
37 | O=C1NC(=O)/C(=C/c2ccc(-c3ccc(O)c(C(=O)O)c3)o2)S1 |  | 5.89
38 | Cc1sc(NC(=O)Cc2ccccc2)c(C(N)=O)c1C | inactive | 
39 | O=C1Nc2ccc(I)cc2C1(O)N1CCOCC1 (configuration not stated) |  | 6.10
40 | CC(C)c1cccc(O)c(=O)c1 | > 100 µM (inactive) | 
41 | O=[N+]([O-])c1ccc2c(N=Nc3ccc4ccccc4c3O)c(O)cc(S(=O)(=O)O)c2c1 |  | 5.52
42 | Cc1ccc(C(=O)NC(=S)Nc2ccc(-c3nc4ccccc4s3)cc2)cc1[N+](=O)[O-] |  | 5.43
43 | Nc1c(S(=O)(=O)O)cc(Nc2cccc(S(N)(=O)=O)c2)c2c1C(=O)c1ccccc1C2=O | inactive | 
44 | Cc1ccc(-c2cc(C(=O)Nc3sc(C(=O)OC(C)C)c(C)c3C(N)=O)c3ccccc3n2)s1 |  | 5.74
45 | O=C1CC(=O)c2ccc3c4c(ccc1c24)C(=O)CC3=O |  | 5.28
46 | Cc1ccc(NC(=O)c2c(NC(=O)C(F)(F)F)sc(-c3ccccc3)c2C)c(C)c1 |  | 5.09
47 | CC(C)=CCC(O)C1=CC(=O)c2c(O)ccc(O)c2C1=O (configuration not stated) | inactive | 
48 | CCc1c(O)c2c(c(O)c1C(C)=O)C(=O)c1c(cc(O)c(C(=O)O)c1C(=O)O)C2=O | > 100 µM (inactive) | 
49 | CCN1C(=O)/C(=C/c2ccoc2)C(=O)NC1=S | inactive | 
50 | O=C1C=CC(=O)c2c(O)cccc21 |  | 5.31

Row | Compound | IC50 | pIC50
51 | NCC[Se][Se]CCN | > 100 µM (inactive) | 
52 | Cc1sc(NC(=O)c2ccc3c(c2)OCO3)c(C(N)=O)c1C |  | 5.40
53 | Cc1sc(NC(=O)c2ccc(Br)o2)c(C(N)=O)c1C |  | 5.40
54 | O=[N+]([O-])c1ccc(S(=O)(=O)Cc2ccccc2)c2nonc12 | inactive | 
55 | Oc1cc(O)c2cc(O)c(-c3ccc(O)c(O)c3)[o+]c2c1 |  | 6.40
56 | Cc1cc(Br)ccc1N1C(=O)/C(=C/c2ccco2)C(=O)NC1=S |  | 6.70
57 | O=C1/C(=C/c2ccc(O)c(O)c2)SC(=S)N1C1CCCCC1 |  | 5.52
58 | COc1cccc(-c2nc3cc(NC(=O)/C=C\c4ccccc4)ccc3o2)c1 |  | 5.43
59 | Cc1cc(Cl)ccc1OCC(=O)Nc1sc(C)c(C)c1C(N)=O |  | 5.92
60 | C[N+](C)=c1ccc2nc3c(cc(Nc4ccccc4)c4ccccc43)oc-2c1 |  | 5.55
61 | CC(C)=Cc1cc(CCC/C(C)=C/Cc2c(O)cc(C)c(C(=O)O)c2O)co1 | inactive | 
62 | O=c1[nH]c(=S)n(-c2ccccc2F)c(O)c1C=C1C=CC=N1 |  | 6.10
63 | C=CCN1C(=O)/C(=C\c2ccc([N+](=O)[O-])o2)C(=O)NC1=S |  | 4.14
64 | CC(=O)/C=C/C=C/c1ccc2c(c1)OC(CO)C(c1ccc(O)c(O)c1)O2 (configuration not stated) | inactive | 
65 | COc1c(OC)c(O)c2c(=O)cc(-c3ccc(O)c(O)c3)oc2c1OC | inactive | 
66 | Cc1cc(=O)c2c(O)c3c(O)cc(O)c4c5c(O)cc(O)c6c(O)c7c(=O)cc(C)c8c1c2c(c34)c(c65)c78 | inactive | 
67 | S=C(Nc1ccc2c(c1)Cc1ccccc1-2)Nc1ccc2c(c1)Cc1ccccc1-2 |  | 5.40
68 | O=c1c(O)c(-c2ccc(O)c(O)c2)oc2cc(O)cc(O)c12 | inactive | 
69 | CCCc1cc(=O)oc2c3c(c4c(c12)OC(C)(C)C=C4)O[C@@H](C)[C@H](C)[C@@H]3F |  | 5.15
70 | O=c1c(O)cccc2cc(O)c(O)c(O)c12 | inactive | 
71 | O=C1NC(=S)N(c2cccc(Cl)c2)C(=O)/C1=C\C=C\c1ccco1 | inactive | 
72 | Cc1ccc(S(=O)(=O)N=C2C=CC(=O)C=C2)c(C)c1 |  | 5.11
73 | O=C1c2ccc(O)cc2C(=O)c2c1ccc(O)c2O | inactive | 
74 | FC(F)(F)c1nc2ccc(SSc3ccc4nc(C(F)(F)F)[nH]c4c3)cc2[nH]1 |  | 5.10
75 | Oc1c(Br)cc(/C=N/Nc2nnc3c(n2)[nH]c2ccccc23)c(Br)c1O |  | 5.37

Row | Compound | IC50 | pIC50
76 | CC(=O)O[C@H](C)[C@@H]1C2=C(C(=O)C[C@]1(C)O)C(=O)c1c(ccc(-c3ccc4c(c3O)C(=O)C3=C(C4=O)[C@@H]([C@@H](C)OC(C)=O)[C@@](C)(O)CC3=O)c1O)C2=O | > 100 µM (inactive) | 
77 | Cc1ccc(C(=O)Nc2sc(C)c(C)c2C(N)=O)cc1 |  | 5.66
78 | CC(C)=CCC1=C(O)[C@@](O)(CC=C(C)C)C(=O)C(C(=O)CC(C)C)=C1O | inactive | 
79 | O=C(Cc1ccccc1Cl)c1ccc(O)c(O)c1O | inactive | 
80 | Cc1sc(NC(=O)c2cccc([N+](=O)[O-])c2)c(C(N)=O)c1C |  | 6.15
81 | C=CC(C)(C)C12CC3C(=O)N/C(=C\c4cnc[nH]4)C(=O)N3C1Nc1ccccc12 (configuration not stated) | > 100 µM (inactive) | 
82 | Cc1ccc(-c2c(C#N)c(SCC(=O)c3ccc(O)c(O)c3)nc3c2CCCC3)o1 |  | 6.70
83 | O=C1C(Cl)=C/C(=N\S(=O)(=O)c2ccc(Cl)cc2)C(Cl)=C1Cl | inactive | 
84 | CN(C)CN1CSC(=S)N(CN(C)C)C1 | inactive | 
85 | C[C@@H]1Oc2c3c(c4c(-c5ccccc5)cc(=O)oc4c2C(=O)[C@H]1C)OC(C)(C)C=C3 |  | 5.38
86 | COc1ccc(-c2nc3sc(-c4ccc(OC)cc4)nc3s2)cc1 | > 100 µM (inactive) | 
87 | CCC(=O)Nc1sc2c(c1C(=O)Nc1ccc(OC)cc1)CCCCC2 |  | 5.05
88 | COc1cc(C)cc2c(-c3c(O)cc(O)c4c3C[C@@H](C)N[C@@H]4C)cc(-c3cc(-c4c(O)cc(O)c5c4C[C@@H](C)N[C@@H]5C)c4cc(C)cc(OC)c4c3O)c(O)c12 |  | 5.92
89 | COc1cc([C@@H]2c3cc4c(cc3C[C@H]3COC(=O)[C@@H]32)OCO4)cc(OC)c1O |  | 5.62
90 | O=c1[nH]c2[nH]c(=S)[nH]c(=S)c2[nH]1 | > 100 µM (inactive) | 
91 | Nc1ccc(N=Nc2ccc(-c3ccc(O)cc3)cc2)c2ccc(S(=O)(=O)O)cc12 | inactive | 
92 | O=C1c2ccccc2C(=O)c2c1cc(O)c(O)c2O | inactive | 
93 | CCOc1ccc(N2C(=O)/C(=C/c3ccc(I)o3)C(=O)NC2=S)cc1 |  | 5.62
94 | CC(C)c1ccc(O)c(O)c(=O)c1 (tested in a mixture with another compound) | inactive | 
95 | Cc1cc(O)c2c(c1O)C(=O)c1cccc(O)c1C2=O | > 100 µM (inactive) | 
96 | O=C(O)c1c(Br)c(Br)c(Br)c(Br)c1C1c2ccc(O)cc2Oc2cc(O)ccc21 |  | 5.10
97 | Cc1cc(-c2ccco2)c(C#N)c(SCC(=O)c2ccc(O)c(O)c2)n1 |  | 5.96
